This is an account of results in PubChem BioAssay (NCI).

The structures appear in SMILES notation.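 Interpolation was linear, between the two tested concentrations surrounding the appropriate level; five concentrations were tested over 48 hours in 96-well plates. GI50 marks 50% less growth. TGI is the concentration that stops growth completely.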 Where only a bound is given, the exact number is not on record here.

Holding throughout (test): NCI tumour cell line growth inhibition, 48 h
The subject of assay [1] is SK-OV-3 ovarian.
Assay [2] deals with 786-0 renal.
In assay [3] the test system is SF-539 CNS.
The subject of assay [4] is HL-60(TB) leukemia.
The subject of assay [5] is SNB-75 CNS.
The test system of assay [6] is M14 melanoma.
Assay [7] concerns UACC-62 melanoma.
Assay [8] concerns NCI-H460 lung.
Assay [9] concerns CCRF-CEM leukemia.
Assay [10] deals with ACHN renal.

For the compound `OC1CCCC2CCC[N-]C12.OC1CCCC2CCC[N-]C12.[O]=[V][OH]` (stereo not drawn), the GI50 is 6.25 µM in assay [1]; 7.08 µM in assay [2]; 15800 nM in [3]; 2610 nM in assay [4]; 32800 nM in [5]; 2920 nM in [6]. Also, the GI50 in assay [7] was 3980 nM; in assay [8], 5.49 µM; in assay [9], 0.493 µM; in assay [10], 8.21 µM. Further, the TGI was 55.9 µM in [1]; 24.8 µM in [2]; > 100 µM in [3]; 8.4 µM in [4]; > 100 µM in assay [5]; 14.9 µM in assay [6]. Moreover, the TGI is 24.7 µM in [7], > 100 µM in [8], 12.2 µM in assay [9] and > 100 µM in assay [10].

On to `N#C/C(=C1\OC(=N)C(c2ccccc2)C1=O)c1ccccc1` (stereo not drawn), for which the TGI in assay [1] was > 100 µM; in [2], > 56.8 µM; in [3] it was > 31.6 µM; in [4], 54.4 µM; in [5], > 85.7 µM; in assay [6] it was > 59.5 µM. The TGI in assay [7] was 52.7 µM; in assay [8], > 100 µM; in assay [9], 48.6 µM; in assay [10], 31.8 µM.

`COc1cc(-c2nc3ccccc3o2)cc(CN2CCCCC2)c1O`: the GI50 in assay [1] is 30.2 µM; in [2], 20.3 µM; in assay [3] it was 2930 nM; in assay [4], 4770 nM; in [5], 2300 nM; in assay [6] it was 1480 nM. Also, the GI50 in assay [7] is 1630 nM; in assay [8], 2.84 µM; in assay [9] it was 4.06 µM; in [10], 8.96 µM. Besides, the TGI in assay [1] is > 74.1 µM; in [2] it was 89.8 µM; in assay [3] it was 7.68 µM; in [4], 36.9 µM; in assay [5], 4.76 µM; in assay [6], 3.26 µM. The TGI is 3.2 µM in assay [7], 10.9 µM in [8], > 100 µM in assay [9] and 83.8 µM in assay [10].

In the case of `Cc1c2ccncc2c(C)c2c1sc1ccccc12`, the TGI in [1] was found to be 34.4 µM; in assay [2], 17.5 µM; in [3], 21.1 µM; in assay [4], 17.3 µM; in assay [5], 36.5 µM; in assay [6], 26.4 µM. Also, the TGI in assay [7] came out at 18.6 µM; in assay [8], 14.3 µM; in [9] it was 30.4 µM; in assay [10] it was 15.7 µM.

For the compound `CCCCOc1ccc(/C=N/Nc2cc(C)nc3ccc(Br)cc23)cc1`, the GI50 was 1.66 µM in assay [1]; 1.83 µM in assay [2]; 1840 nM in assay [3]; 2020 nM in assay [4]; 1700 nM in assay [5]; 1740 nM in assay [6]. For the same compound, the GI50 is 1740 nM in [7], 2.08 µM in assay [8], 1.88 µM in assay [9] and 1.73 µM in [10]. In addition, the TGI in [1] worked out at 3.05 µM; in assay [2] it was 3.37 µM; in assay [3], 3.29 µM; in [4], 4.07 µM; in assay [5], 3.24 µM; in [6], 3.2 µM. Moreover, the TGI amounted to 3.26 µM in assay [7], 4.06 µM in assay [8], 4.46 µM in assay [9] and 3.11 µM in assay [10].

In the case of `COc1ccc(-c2cn(-c3ccc(OC)c(OC)c3)c(=O)[nH]2)cc1`, the GI50 is > 100 µM in assay [1]; > 100 µM in [2]; > 100000 nM in assay [3]; 36900 nM in [4]; 24600 nM in assay [5]; > 100000 nM in assay [6]. The GI50 in [7] is > 100000 nM; in [8] it was > 100 µM; in [9], > 100 µM; in [10] it was > 100 µM. Besides, the TGI in assay [1] was > 100 µM; in assay [2], > 100 µM; in assay [3], > 100 µM; in [4], > 100 µM; in [5] it was 98.7 µM; in assay [6], > 100 µM. In addition, the TGI in assay [7], in assay [8], in [9] and in [10] was > 100 µM in each case.

On to `COS(C)(=O)=O`, for which the TGI in assay [1], in assay [2], in assay [3], in assay [4], in [5] and in assay [6] was > 2 µM each time. Also, the TGI in assay [7], in assay [8], in assay [9] and in [10] was > 2 µM throughout.

Regarding `O=C(Nc1cc(Cl)ccc1O)c1ccccc1Nc1ccnc(C(F)(F)F)c1`, the GI50 is 2.21 µM in [1]; 3.28 µM in [2]; 2700 nM in [3]; 1460 nM in [4]; 2170 nM in [5]; 2620 nM in [6]. In addition, the GI50 was 2510 nM in [7], 2.99 µM in assay [8], 3.12 µM in assay [9] and 3.35 µM in [10]. The TGI worked out at 6.23 µM in [1]; 8.8 µM in assay [2]; 9.16 µM in assay [3]; 4.36 µM in [4]; 6.55 µM in assay [5]; 8.71 µM in assay [6]. Moreover, the TGI was 10 µM in assay [7], 9.92 µM in assay [8], 9.63 µM in [9] and > 100 µM in assay [10].

In the case of `O=C(c1ccc([N+](=O)[O-])cc1)C(Br)C(Br)c1ccnc2ccccc12` (stereo not drawn), the TGI in [1] turned out to be 32.1 µM; in assay [2] it was 7.44 µM; in assay [3], 15.3 µM; in assay [4] it was 9.99 µM; in [5], 13.1 µM; in [6] it was 9.81 µM. Besides, the TGI in assay [7] came to 24.6 µM; in assay [8], 13.8 µM; in [9], 2.11 µM; in assay [10], 17 µM.

For the compound `C/C=C/C(=O)[O-].C/C=C/C(=O)[O-].N.N.N.N.[Co+3].[O-][Cl+3]([O-])([O-])[O-]`, the GI50 was > 100 µM in assay [1]; > 100 µM in assay [2]; > 100000 nM in [3]; > 100000 nM in assay [4]; 47400 nM in assay [5]; > 100000 nM in assay [6]. Further, the GI50 in [7] was > 100000 nM; in [8], > 100 µM; in assay [9] it was > 100 µM; in [10], > 100 µM. Also, the TGI in assay [1], in assay [2], in assay [3], in assay [4], in assay [5] and in [6] was > 100 µM throughout. In addition, the TGI in [7], in assay [8], in [9] and in assay [10] was > 100 µM each time.

Turning to `O=C(Nc1cc(F)c(F)cc1C(=O)O)c1ccc(-n2ccnc2)nn1`, the GI50 in [1] is > 100 µM; in [2], > 100 µM; in [3], 34400 nM; in [4] it was 38900 nM; in assay [5], > 100000 nM; in assay [6] it was > 100000 nM. Besides, the GI50 was > 100000 nM in assay [7], > 100 µM in assay [8], 98.2 µM in assay [9] and > 100 µM in assay [10]. For the same compound, the TGI in [1], in assay [2], in [3], in [4], in assay [5] and in assay [6] was > 100 µM in each case. The TGI in assay [7], in assay [8], in assay [9] and in assay [10] was > 100 µM in each case.

Consider `COc1ccc(C(=O)c2cc3c(N)c(C(=O)Nc4cccc(Br)c4C)sc3nc2C)cc1`, for which the GI50 was 0.102 µM in [1]; 0.0616 µM in assay [2]; 25.6 nM in assay [3]; 28.2 nM in assay [4]; 40.5 nM in assay [5]; 26.7 nM in [6]. The GI50 was 45.6 nM in assay [7], 0.0962 µM in assay [8], 0.0409 µM in assay [9] and 0.0693 µM in assay [10]. In addition, the TGI in assay [1] is > 100 µM; in [2] it was > 100 µM; in assay [3], 0.0809 µM; in assay [4], 0.0954 µM; in assay [5], > 100 µM; in assay [6] it was > 100 µM. Besides, the TGI in [7], in assay [9] and in [10] was > 100 µM throughout.

In the case of `O=C1Cc2cc(CCn3cncn3)c(Cl)cc2N1`, the GI50 is 36.5 µM in [1]; > 100 µM in assay [2]; > 100000 nM in assay [3]; > 100000 nM in assay [4]; 13200 nM in assay [5]; 3980 nM in assay [6]. Further, the GI50 was 20700 nM in [7], 68.6 µM in assay [8], 3.5 µM in assay [9] and > 100 µM in assay [10]. In addition, the TGI in assay [1], in [2], in assay [3], in assay [4], in [5] and in assay [6] was > 100 µM throughout. The TGI in assay [7], in [8], in assay [9] and in [10] was > 100 µM throughout.

As for `COc1cc2c3c(n(CCCNCCCNCCN)c(=O)c2cc1OC)-c1cc2c(cc1C3=O)OCO2`, the GI50 in assay [1] is > 100 µM; in assay [2] it was 26.2 µM; in [3] it was 37900 nM; in assay [4] it was 46900 nM; in [5] it was 28900 nM; in [6] it was 53900 nM. The GI50 in [7] was 37100 nM; in [8], > 100 µM; in [9] it was 10.1 µM; in [10], 18.7 µM. In addition, the TGI was > 100 µM in [1]; 82 µM in assay [2]; > 100 µM in assay [3]; > 100 µM in [4]; 94.6 µM in assay [5]; > 100 µM in assay [6]. Also, the TGI in assay [7] is > 100 µM; in [8] it was > 100 µM; in assay [9] it was 32.2 µM; in assay [10], 57.1 µM.

With `CCCCNC(=S)OCCC(C)CCCC(C)C` (stereo not drawn), the TGI in assay [1], in assay [2], in [3], in assay [4], in assay [5] and in assay [6] was > 100 µM each time. Further, the TGI in assay [7], in assay [8], in assay [9] and in assay [10] was > 100 µM each time.

Turning to `Cc1ccc(Cl)c(NS(=O)(=O)c2ccc(-c3cnc(C4CC4)o3)cc2)c1`, the GI50 is 3.31 µM in assay [1]; 0.0772 µM in assay [2]; 80.3 nM in assay [3]; 45.1 nM in assay [4]; 23.2 nM in assay [5]; 69.8 nM in assay [6]. The GI50 is 47.2 nM in assay [7], 0.102 µM in assay [8], 0.0777 µM in [9] and 0.205 µM in assay [10]. Moreover, the TGI in [1] is 68.8 µM; in [2], > 100 µM; in [3] it was 1.54 µM; in assay [5], 0.164 µM; in [6] it was > 42.6 µM; in [7], 34.8 µM. Also, the TGI was 20.4 µM in assay [8], > 100 µM in [9] and > 72.7 µM in assay [10].

As to `O=C(/C=C/c1ccccn1)c1ccc(OCc2nnc(-c3ccc(Cl)cc3)o2)cc1`, the GI50 is 3.82 µM in [1]; 1.78 µM in assay [2]; 1660 nM in [3]; 2460 nM in assay [4]; 1460 nM in [5]; 1990 nM in assay [6]. The GI50 in assay [7] was 1830 nM; in [8], 3.24 µM; in assay [9] it was 1.83 µM; in assay [10], 1.66 µM. The TGI came to 10.4 µM in assay [1]; 3.23 µM in assay [2]; 3.09 µM in assay [3]; 7.68 µM in assay [4]; 2.89 µM in assay [5]; 3.87 µM in assay [6]. Also, the TGI amounted to 3.55 µM in assay [7], 11.1 µM in assay [8], 5.88 µM in assay [9] and 3.11 µM in [10].
